In patent publication US20230301300A1, “HERBICIDAL COMPOSITIONS” (SYNGENTA CROP PROTECTION AG, priority 2020, published 2023):

Columns and labels:
Assay in all cases: B2 Post-Emergence Efficacy - Test 2
Assay type in all cases: in vivo
Conditions in all cases: 15 days after application, 0-100 scale
[1] = test system: Triticum aestivum (TRZAW)
How it was run: (§1)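 Visual phytotoxicity on a 0–100 scale, where 100 means total kill, was recorded 15 days following a single post-emergence spray. The spray was an aqueous dilution of active ingredient in IF50 with 0.2% v/v Genapol X080, applied to 12-day-old plants.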

[2] = test system: Polygonum convolvulus (POLCO)
How it was run: as §1

Poa annua (POAAN) = test system: Poa annua (POAAN)
How it was run: as §1

[3] = test system: Abutilon theophrasti (ABUTH)
How it was run: as §1

Structure (SMILES) | Herbicidal activity TRZAW ([1]; 15 g/Ha) | Herbicidal activity TRZAW ([1]; 30 g/Ha) | Herbicidal activity TRZAW ([1]; 60 g/Ha) | Herbicidal activity TRZAW ([1]; 125 g/Ha) | Herbicidal activity TRZAW ([1]; 250 g/Ha) | Herbicidal activity TRZAW ([1]; 500 g/Ha) | Herbicidal activity POLCO ([2]; 15 g/Ha) | Herbicidal activity POLCO ([2]; 60 g/Ha) | Herbicidal activity POAAN (Poa annua (POAAN); 15 g/Ha) | Herbicidal activity POAAN (Poa annua (POAAN); 30 g/Ha) | Herbicidal activity POAAN (Poa annua (POAAN); 60 g/Ha) | Herbicidal activity POAAN (Poa annua (POAAN); 125 g/Ha) | Herbicidal activity POAAN (Poa annua (POAAN); 250 g/Ha) | Herbicidal activity POAAN (Poa annua (POAAN); 500 g/Ha) | Herbicidal activity ABUTH ([3]; 15 g/Ha) | Herbicidal activity ABUTH ([3]; 30 g/Ha) | Herbicidal activity ABUTH ([3]; 60 g/Ha) | Herbicidal activity ABUTH ([3]; 125 g/Ha) | Herbicidal activity ABUTH ([3]; 250 g/Ha) | Herbicidal activity ABUTH ([3]; 500 g/Ha) | further results
Cc1nn(C)c(=O)c(-c2c(F)ccc(Cl)c2CCc2ccc(C#N)cc2)c1O [Compound 1.024, 4-[3-chloro-6-fluoro-2-[2-[4-(cyano)phenyl]ethyl]phenyl]-5-hydroxy-2,6-dimethyl-pyridazin-3-one] | 0 | 0 | 20 | 30 | 60 | 70 | 80 | 90 | 10 | 20 | 30 | 80 | 80 | 90 | 90 | 90 | 100 | 100 | 100 | 100 | Herbicidal activity POLCO ([2]; 125 g/Ha): 90; Herbicidal activity POLCO ([2]; 250 g/Ha): 90; Herbicidal activity POLCO ([2]; 500 g/Ha): 100
Cc1nn(C)c(=O)c(-c2c(F)ccc(Cl)c2CCc2ccc(C(F)(F)F)nc2)c1O [Compound 1.042, 4-[3-chloro-6-fluoro-2-[2-[6-(trifluoromethyl)-3-pyridyl]ethyl]phenyl]-5-hydroxy-2,6-dimethyl-pyridazin-3-one] | 20 | 30 | 60 | 70 | 80 | 80 | 80 | 90 | 20 | 70 | 80 | 90 | 90 | 90 | 80 | 90 | 100 | 100 | 100 | 100 | Herbicidal activity POLCO ([2]; 30 g/Ha): 80; Herbicidal activity POLCO ([2]; 125 g/Ha): 90; Herbicidal activity POLCO ([2]; 250 g/Ha): 90; Herbicidal activity POLCO ([2]; 500 g/Ha): 100
Cc1nn(C)c(=O)c(-c2c(F)ccc(Cl)c2CCc2ccc(F)cc2)c1O [Compound 1.048, 4-[3-chloro-6-fluoro-2-[2-(4-fluorophenyl)ethyl]phenyl]-5-hydroxy-2,6-dimethyl-pyridazin-3-one] | 0 | 10 | 20 | 20 | 50 | 80 | 60 | 90 | 30 | 30 | 80 | 80 | 90 | 90 | 60 | 80 | 90 | 90 | 90 | 100 | Herbicidal activity POLCO ([2]; 30 g/Ha): 70; Herbicidal activity POLCO ([2]; 125 g/Ha): 90; Herbicidal activity POLCO ([2]; 250 g/Ha): 90; Herbicidal activity POLCO ([2]; 500 g/Ha): 90
Cc1nn(C)c(=O)c(-c2c(F)ccc(Cl)c2CCc2ccccc2C(F)(F)F)c1O [Compound 1.066, 4-[3-chloro-6-fluoro-2-[2-[2-(trifluoromethyl)phenyl]ethyl]phenyl]-5-hydroxy-2,6-dimethyl-pyridazin-3-one] | 0 | 10 | 40 | 60 | 70 | 80 | 70 | 90 | 20 | 70 | 80 | 90 | 90 | 90 | 20 | 50 | 50 | 90 | 90 | 100 | Herbicidal activity POLCO ([2]; 30 g/Ha): 80; Herbicidal activity POLCO ([2]; 125 g/Ha): 90; Herbicidal activity POLCO ([2]; 250 g/Ha): 100; Herbicidal activity POLCO ([2]; 500 g/Ha): 100
Cc1nn(C)c(=O)c(-c2c(F)ccc(Cl)c2CCc2ccc(Cl)cc2)c1OC(=O)C(C)C [Compound 1.089, [5-[3-chloro-2-[2-(4-chlorophenyl)ethyl]-6-fluoro-phenyl]-1,3-dimethyl-6-oxo-pyridazin-4-yl] 2-methylpropanoate] | 0 | 0 | 20 | 30 | 60 | 70 |  |  | 20 | 40 | 70 | 90 | 80 | 70 | 70 | 90 | 100 | 100 | 100 | 100 | 
Cc1nn(C)c(=O)c(-c2c(F)ccc(Cl)c2CCc2ccc(F)cc2)c1OC(=O)C(C)C [Compound 1.125, [5-[3-chloro-6-fluoro-2-[2-(4-fluorophenyl)ethyl]phenyl]-1,3-dimethyl-6-oxo-pyridazin-4-yl] 2-methylpropanoate] | 0 | 10 | 10 | 20 | 30 | 50 | 90 | 90 | 0 | 10 | 20 | 60 | 70 | 60 | 80 | 90 | 90 | 90 | 100 | 100 | Herbicidal activity POLCO ([2]; 30 g/Ha): 90; Herbicidal activity POLCO ([2]; 125 g/Ha): 90; Herbicidal activity POLCO ([2]; 250 g/Ha): 90; Herbicidal activity POLCO ([2]; 500 g/Ha): 90
